Source: US9266876B2 (Actelion Pharmaceuticals Ltd., priority 2012, dated 2016)
pIC50: −log10 of the molar value.

What was measured:
CXCR3 = CXCR3 (Homo sapiens (Human), UniProt P49682); test: Receptor internalization assay; format: cell-based; conditions: human whole blood; final CXCL10 concentration 9 nM; 30 min 37° C.; CXCR3 cell surface expression on CD3 positive cells, flow cytometer; read-out: Internalization IC50
Procedure: B): Receptor Internalization Assay:
Stock solutions of test compounds are made up at a concentration of 10 mM in DMSO, and serially diluted in PBS containing 0.5% BSA to concentrations required for inhibition dose response curves. Diluted compounds are then mixed with an equal volume of CXCL10 (Peprotech) diluted in PBS. Anticoagulated venous human whole blood is added to the mixture, which is then incubated in a CO2 incubator at 37° C. to allow for ligand mediated receptor internalization (final CXCL10 concentration is 9 nM). After 30′, the blood is mixed with fluorescently labeled CXCR3 and CD3 specific antibodies (Becton Dickinson) and incubated on ice for 10 minutes. Samples are then mixed with BD FACS Lysing Solution (Becton Dickinson) in order to eliminate red blood cells. After washing the cells with PBS containing 0.5% BSA, the samples are then analyzed in a flow cytometer (FACS Canto II, Becton Dickinson). For data analysis using FACSDiva software (Becton Dickinson), the mean fluorescence corresponding to CXCR3 cell surface expression was determined on CD3 positive cells. The program GraphPad Prism is used to fit the data to a single site dose response curve and to calculate IC50 values.

human CXCR3A = human CXCR3A (Homo sapiens (Human), UniProt P49682); test: FLIPR assay; format: cell-based; conditions: CHO-K1 cells expressing the human CXCR3A coupled to Galpha(16); CXCL10 agonist 20 nM; Fluo-4-AM fluorescence; mean values if determined several times
Summary of the method: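 CHO-K1 cells expressing CXCR3A coupled to Gα16 were loaded with Fluo-4-AM for 1 h in Hepes-buffered HBSS, pH 7.4, with 5 mM probenecid. Compound dilutions were added on the FLIPR, followed by CXCL10 (added as a 20 nM solution). Baseline-subtracted peak fluorescence was fitted to a single-site curve for IC50.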

Sequence of human CXCR3A (P49682 whole entry): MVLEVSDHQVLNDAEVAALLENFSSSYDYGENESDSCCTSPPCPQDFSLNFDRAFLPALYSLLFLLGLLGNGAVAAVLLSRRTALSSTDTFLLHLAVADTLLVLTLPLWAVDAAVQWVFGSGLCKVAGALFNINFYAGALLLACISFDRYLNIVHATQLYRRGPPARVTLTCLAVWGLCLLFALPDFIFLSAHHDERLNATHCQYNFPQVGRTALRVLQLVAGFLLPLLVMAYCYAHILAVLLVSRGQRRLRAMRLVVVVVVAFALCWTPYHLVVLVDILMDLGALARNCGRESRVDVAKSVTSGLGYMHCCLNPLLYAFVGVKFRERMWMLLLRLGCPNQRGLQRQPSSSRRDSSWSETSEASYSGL
Sequence of CXCR3 (P49682 whole entry): as above

pIC50 (CXCR3)	pIC50 (human CXCR3A)	Compound
6.19	8.22	O=C(Cn1c(=O)[nH]c2cccnc21)N1CCN(c2scnc2-c2nc3ccccc3[nH]2)CC1 [Example 71, 3-(2-{4-[4-(1H-Benzoimidazol-2-yl)-thiazol-5-yl]-piperazin-1-yl}-2-oxo-ethyl)-1,3-dihydro-imidazo[4,5-b]pyridin-2-one]
6.64	9.00	C[C@@H]1CN(c2scnc2-c2nc3cc(Cl)ccc3[nH]2)C[C@H](C)N1C(=O)Cn1cnc2cccnc21 [Example 72, 1-{(2S,6R)-4-[4-(5-Chloro-1H-benzoimidazol-2-yl)-thiazol-5-yl]-2,6-dimethyl-piperazin-1-yl}-2-imidazo[4,5-b]pyridin-3-yl-ethanone]
6.10	8.22	C[C@@H]1CN(c2sc(C3CC3)nc2-c2nc3ccccc3[nH]2)CCN1C(=O)Cn1cnc2cccnc21 [Example 73, 1-{(R)-4-[4-(1H-Benzoimidazol-2-yl)-2-cyclopropyl-thiazol-5-yl]-2-methyl-piperazin-1-yl}-2-imidazo[4,5-b]pyridin-3-yl-ethanone]
5.98	8.70	Cn1c(=O)n(CC(=O)N2CCN(c3scnc3-c3nc4ccc(OC(F)(F)F)cc4[nH]3)CC2)c2ccccc21 [Example 74, 1-Methyl-3-(2-oxo-2-{4-[4-(6-trifluoromethoxy-1H-benzoimidazol-2-yl)-thiazol-5-yl]-piperazin-1-yl}-ethyl)-1,3-dihydro-benzoimidazol-2-one]
6.14	7.82	Cn1c(=O)n(CC(=O)N2CCN(c3scnc3-c3nc4cc(C#N)ccc4[nH]3)CC2)c2ccccc21 [Example 75, 2-(5-{4-[2-(3-Methyl-2-oxo-2,3-dihydro-benzoimidazol-1-yl)-acetyl]-piperazin-1-yl}-thiazol-4-yl)-1H-benzoimidazole-5-carbonitrile]
5.84	8.22	O=C(CN1C(=O)CCc2ccccc21)N1CCN(c2scnc2-c2nc3ccccc3[nH]2)CC1 [Example 77, 1-(2-{4-[4-(1H-Benzoimidazol-2-yl)-thiazol-5-yl]-piperazin-1-yl}-2-oxo-ethyl)-3,4-dihydro-1H-quinolin-2-one]
5.51	7.96	O=C(CN1C(=O)COc2ccccc21)N1CCN(c2scnc2-c2nc3ccccc3[nH]2)CC1 [Example 78, 4-(2-{4-[4-(1H-Benzoimidazol-2-yl)-thiazol-5-yl]-piperazin-1-yl}-2-oxo-ethyl)-4H-benzo[1,4]oxazin-3-one]
6.34	9.00	C[C@@H]1CN(c2sc(Br)nc2-c2nc3ccccc3[nH]2)CCN1C(=O)Cn1cnc2cccnc21 [Example 80, 1-{(R)-4-[4-(1H-Benzoimidazol-2-yl)-2-bromo-thiazol-5-yl]-2-methyl-piperazin-1-yl}-2-imidazo[4,5-b]pyridin-3-yl-ethanone]
6.47	9.00	C[C@@H]1CN(c2scnc2-c2nc3ccc(Cl)cc3[nH]2)CCN1C(=O)Cn1cnc2cccnc21 [Example 83, 1-{(R)-4-[4-(6-Chloro-1H-benzoimidazol-2-yl)-thiazol-5-yl]-2-methyl-piperazin-1-yl}-2-imidazo[4,5-b]pyridin-3-yl-ethanone]
6.29	9.00	C[C@@H]1CN(c2scnc2-c2nc3cc(Cl)ccc3[nH]2)CCN1C(=O)Cn1c(=O)oc2ccccc21 [Example 84, 3-(2-{(R)-4-[4-(5-Chloro-1H-benzoimidazol-2-yl)-thiazol-5-yl]-2-methyl-piperazin-1-yl}-2-oxo-ethyl)-3H-benzooxazol-2-one]
6.30	9.00	Cc1ccc2[nH]c(-c3ncsc3N3CCN(C(=O)Cn4cnc5cccnc54)[C@H](C)C3)nc2c1 [Example 85, 2-Imidazo[4,5-b]pyridin-3-yl-1-{(R)-2-methyl-4-[4-(5-methyl-1H-benzoimidazol-2-yl)-thiazol-5-yl]-piperazin-1-yl}-ethanone]
6.69	9.00	Cc1cc2[nH]c(-c3ncsc3N3CCN(C(=O)Cn4cnc5cccnc54)[C@H](C)C3)nc2cc1Cl [Example 87, 1-{(R)-4-[4-(5-Chloro-6-methyl-1H-benzoimidazol-2-yl)-thiazol-5-yl]-2-methyl-piperazin-1-yl}-2-imidazo[4,5-b]pyridin-3-yl-ethanone]
6.90	9.00	CC(C)c1ccc2nc(-c3ncsc3N3CCN(C(=O)Cn4cnc5cccnc54)[C@H](C)C3)[nH]c2c1 [Example 88, 2-Imidazo[4,5-b]pyridin-3-yl-1-{(R)-4-[4-(6-isopropyl-1H-benzoimidazol-2-yl)-thiazol-5-yl]-2-methyl-piperazin-1-yl}-ethanone]
6.05	9.40	C[C@@H]1CN(c2scnc2-c2nc3cc(F)c(F)cc3[nH]2)CCN1C(=O)Cn1cnc2cccnc21 [Example 91, 1-{(R)-4-[4-(5,6-Difluoro-1H-benzoimidazol-2-yl)-thiazol-5-yl]-2-methyl-piperazin-1-yl}-2-imidazo[4,5-b]pyridin-3-yl-ethanone]
6.50	9.00	C[C@@H]1CN(c2scnc2-c2nc3cc(C(F)(F)F)ccc3[nH]2)CCN1C(=O)Cn1cnc2cccnc21 [Example 92, 2-Imidazo[4,5-b]pyridin-3-yl-1-{(R)-2-methyl-4-[4-(5-trifluoromethyl-1H-benzoimidazol-2-yl)-thiazol-5-yl]-piperazin-1-yl}-ethanone]
6.25	9.30	C[C@@H]1CN(c2scnc2-c2nc3cc(F)ccc3[nH]2)CCN1C(=O)Cn1cnc2cccnc21 [Example 96, 1-{(R)-4-[4-(5-Fluoro-1H-benzoimidazol-2-yl)-thiazol-5-yl]-2-methyl-piperazin-1-yl}-2-imidazo[4,5-b]pyridin-3-yl-ethanone]
6.66	9.00	CCc1ccc2nc(-c3ncsc3N3CCN(C(=O)Cn4cnc5cccnc54)[C@H](C)C3)[nH]c2c1 [Example 99, 1-{(R)-4-[4-(6-Ethyl-1H-benzoimidazol-2-yl)-thiazol-5-yl]-2-methyl-piperazin-1-yl}-2-imidazo[4,5-b]pyridin-3-yl-ethanone]
6.13	9.00	C[C@@H]1CN(c2scnc2-c2nc3ccc(-c4ccccc4)cc3[nH]2)CCN1C(=O)Cn1cnc2cccnc21 [Example 100, 2-Imidazo[4,5-b]pyridin-3-yl-1-{(R)-2-methyl-4-[4-(6-phenyl-1H-benzoimidazol-2-yl)-thiazol-5-yl]-piperazin-1-yl}-ethanone]
7.09	9.00	C[C@@H]1CN(c2sc(C(F)(F)F)nc2-c2nc3ccccc3[nH]2)CCN1C(=O)CN1C(=O)Cc2ccccc21 [Example 103, 1-(2-{(R)-4-[4-(1H-Benzoimidazol-2-yl)-2-trifluoromethyl-thiazol-5-yl]-2-methyl-piperazin-1-yl}-2-oxo-ethyl)-1,3-dihydro-indol-2-one]
6.92	9.00	C[C@@H]1CN(c2sc(C(F)(F)F)nc2-c2nc3ccccc3[nH]2)CCN1C(=O)Cn1c(=O)[nH]c2cccnc21 [Example 104, 3-(2-{(R)-4-[4-(1H-Benzoimidazol-2-yl)-2-trifluoromethyl-thiazol-5-yl]-2-methyl-piperazin-1-yl}-2-oxo-ethyl)-1,3-dihydro-imidazo[4,5-b]pyridin-2-one]
5.71	7.80	O=C(Cn1ncc2ccccc21)N1CCN(c2scnc2-c2nc3ccccc3[nH]2)CC1 [Example 109, 1-{4-[4-(1H-Benzoimidazol-2-yl)-thiazol-5-yl]-piperazin-1-yl}-2-indazol-1-yl-ethanone]
5.82	8.05	C[C@@H]1CN(c2sc(C3COC3)nc2-c2nc3ccccc3[nH]2)CCN1C(=O)Cn1cnc2cccnc21 [Example 113, 1-{(R)-4-[4-(1H-Benzoimidazol-2-yl)-2-oxetan-3-yl-thiazol-5-yl]-2-methyl-piperazin-1-yl}-2-imidazo[4,5-b]pyridin-3-yl-ethanone]
6.09	9.00	C[C@@H]1CN(c2scnc2-c2nc3ccccc3[nH]2)CCN1C(=O)Cn1ncc2cccnc21 [Example 115, 1-{(R)-4-[4-(1H-Benzoimidazol-2-yl)-thiazol-5-yl]-2-methyl-piperazin-1-yl}-2-pyrazolo[3,4-b]pyridin-1-yl-ethanone]
6.51	8.52	C[C@@H]1CN(c2scnc2-c2nc3ccccc3[nH]2)CCN1C(=O)Cn1cc2cccnc2n1 [Example 116, 1-{(R)-4-[4-(1H-Benzoimidazol-2-yl)-thiazol-5-yl]-2-methyl-piperazin-1-yl}-2-pyrazolo[3,4-b]pyridin-2-yl-ethanone]

Compound	pIC50 (CXCR3)	pIC50 (human CXCR3A)
O=C(Cn1cnc2cccnc21)N1[C@@H]2CC[C@H]1CN(c1scnc1-c1nc3ccccc3[nH]1)C2 [Example 79, rac-1-{(1S*,5R*)-3-[4-(1H-Benzoimidazol-2-yl)-thiazol-5-yl]-3,8-diaza-bicyclo[3.2.1]oct-8-yl}-2-imidazo[4,5-b]pyridin-3-yl-ethanone]	6.08	8.22
